US10227349B2, “Pyrazolo[1,5-a]pyrimidine compound” (Eisai R&D Management Co., Ltd., priority 2016, dated 2019)

Key:
[1] = test system: DNFB-induced dermatitis in BALB/c male mice; test: Mouse dermatitis model (DNFB-induced auricle swelling); format: in vivo; settings: 0.3 mg/mL solution 10 mL/kg orally 8 hours after DNFB induction, auricle thickness on following day
Experimental: The test compound was added to a 0.5% carboxymethyl cellulose solution so as to have the final concentration of 0.3 mg/mL, thereby preparing an administration solution containing the test compound. Hapten used was 2,4-dinitrofluorobenzene (DNFB, Wako Pure Chemical Industries).
Twenty-five (25) μL of a solution of DNFB diluted to 0.4% with a mixed solvent of acetone and an olive oil in a volume ratio of 2:1 was applied twice to the shaved abdominal region of BALB/c male mice (Charles River), 6-10 weeks of age, over a period of 2 days to create the sensitization. Four days after the sensitization, on the first day, 20 μL of a solution of DNFB diluted to 0.2% with a mixed solvent of acetone and an olive oil in a volume ratio of 2:1 was applied to the right auricle of the mouse to induce dermatitis. Eight hours after the induction of dermatitis, the administration solution containing the test compound (10 mL/kg) was orally administered to the mouse. On the day following the induction of dermatitis, the right auricle thickness of the mouse was measured using a thickness gauge to evaluate the action of the test compound.
Note that Reference Example 1 in Table 5 is Compound (XIX).

PAR2 = target: T1, PAR2 (Homo sapiens, UniProt P55085); test: Intracellular calcium concentration measurement (trypsin-induced calcium elevation, FDSS6000); format: cell-based; settings: HEK293 cells, trypsin 5 U/mL as agonist, test compound added 30 min before measurement; read-out: Inhibitory activity on intracellular calcium elevation (IC50 (nM))
T1 construct: Human embryonic kidney cell line HEK293 cells cultured using DMEM culture medium; endogenous in cells; host or cells: HEK293
T1 sequence (P55085 26-397): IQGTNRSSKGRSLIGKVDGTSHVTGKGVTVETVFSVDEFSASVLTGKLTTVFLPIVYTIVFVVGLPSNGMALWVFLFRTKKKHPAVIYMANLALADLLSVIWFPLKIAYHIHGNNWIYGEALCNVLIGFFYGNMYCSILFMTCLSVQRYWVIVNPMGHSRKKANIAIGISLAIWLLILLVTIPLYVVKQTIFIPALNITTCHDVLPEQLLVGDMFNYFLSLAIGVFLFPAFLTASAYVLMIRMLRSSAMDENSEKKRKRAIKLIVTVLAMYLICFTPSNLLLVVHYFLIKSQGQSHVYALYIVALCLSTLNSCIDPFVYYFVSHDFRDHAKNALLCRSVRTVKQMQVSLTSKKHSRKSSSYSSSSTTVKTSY
Text: In the present specification, examples of the measurement method for the PAR2 inhibitory activity include measurement method for a concentration elevation of intracellular calcium; measurement method for a production increase of intracellular inositol trisphosphate; measurement method for an increase in intracellular protein phosphorylation by protein kinase C and MAP kinase; and measurement method for a production amount or a release amount of inflammation-related physiologically active substances such as cytokine, chemokine, prostaglandin and nitric monoxide. Examples of the measurement method for an elevation of intracellular calcium concentration include a method wherein a calcium-binding fluorescent probe is allowed to be incorporated in advance into a cultured cell line or an animal-derived isolated cell having PAR2, or a cell in which PAR2 is artificially expressed, a protease having the PAR2 activity function such as trypsin or a PAR2 agonist (synthetic peptides such as SLIGKV-NH2 (SEQ ID NO: 1) and SLIGRL-NH2 (SEQ ID NO: 2) is added to activate PAR2 whereby fluctuating intracellular calcium concentrations are detected as changes in the fluorescent signal. Alternatively, it is also possible to measure an intracellular calcium concentration by determining the quantity of a fluorescence intensity produced in proportion to the calcium concentration using a calcium-binding luminescent protein overexpressing cell line such as Aequorin. Specifically, examples include the methods described in Test Examples of the present specification.
Human embryonic kidney cell line HEK293 cells cultured using DMEM culture medium (Invitrogen) with 3% fetal bovine serum (3% FBS)-added was prepared to have a concentration of 2×10^5 cells/mL, and plated in a type I collagen-coated 384-well black plate (clear bottom) (Greiner) so as to be 25 μL/well and cultured in a CO2 incubator overnight. FLIPR Calcium Assay Kit (Molecular Devices) prepared with Hanks-20 mM Hepes buffer (pH 7.4) was added to the cells so as to be 25 μL/well and cultured in the CO2 incubator for 1 hour. Trypsin (SIGMA-ALDRICH, catalog number: T8816, Enzyme Commission Number 3.4.21.4) prepared so as to be 5 U/mL as final concentration (BAEE unit) with Hanks-20 mM Hepes buffer (pH 7.4) was added to a 384-well deep well polypropylene plate (Greiner) to be an agonist reagent plate. Thirty minutes before the measurement using FDSS6000 (Hamamatsu Photonics K.K.), a test compound prepared with Hanks-20 mM Hepes buffer (pH 7.4) was added to the cell so as to be 8 μL/well. The cell plate to which the test compound was added and the reagent plate were set on FDSS6000, 22 μL/well of the agonist solution was added from the reagent plate, and the change in intracellular calcium concentration was measured with a CCD camera. The measurement was carried out at 37° C. for 120 seconds and the addition of reagent from the reagent plate to the cell plate was carried out using a built-in 384-well automatic dispenser of FDSS6000.
Note that Reference Example 1 in Table 3 is the compound represented by formula (XIX) synthesized in the above Reference Example 1 (hereinafter, also referred to as Compound (XIX)). Additionally, the “Comparative Compound” in Table 3 is the compound described in Patent Literature 4 represented by the following formula (XX) (I-343; hereinafter, also referred to as Compound (XX)).

Row | IC50 (PAR2) [nM] | Structure (SMILES) | Inhibitory activity on auricle swelling (%) [1] [%]
1 | 3.46 | CO[C@H]1CN(C(=O)c2cc3nc(-c4cc(F)c(Cl)c(F)c4)cc(N(C)c4c(C)cccc4F)n3n2)CC[C@H]1CC(=O)O [Example 10, 2-((3R,4S)-1-(5-(4-chloro-3,5-difluorophenyl)-7-((2-fluoro-6-methylphenyl)(methyl)amino)pyrazolo[1,5-a]pyrimidine-2-carbonyl)-3-methoxypiperidin-4-yl)acetic acid] | 52.9
2 | 8.27 | C[C@@H](c1ccccc1)N(C)c1cc(-c2cc(F)c(F)c(F)c2)nc2cc(C(=O)N3CCC(CC(=O)O)CC3)nn12 [Reference Example 1, (S)-2-(1-(7-(methyl(1-phenylethyl)amino)-5-(3,4,5-trifluorophenyl)pyrazolo[1,5-a]pyrimidine-2-carbonyl)piperidin-4-yl)acetic acid, reference compound] | 22.3
